Data from patent US6664397B1, “Use of (+)mefloquine for the treatment of malaria” (Vernalis Research Limited, priority 1997, dated 2003).

Columns and labels:
travellers = conditions: 3851 travellers surveyed, prophylactic use; cited from earlier work
Plasmodium falciparum = conditions: Karle et al. 1993; cited from earlier work
[1] = target: bovine striatal adenosine receptors (non-selective); conditions: displacement of [3H]-NECA
mice [2] = experiment: Irwin screen of overt physiological and behavioral effects in mice; conditions: for reduced activity, unkempt appearance, hunched body posture (late effects): high dose, daily p.o. dosing, about five days
[3] = target: T1, adenosine A2A receptors endogenously expressed in PC-12 cells (Rattus norvegicus, UniProt P30543); experiment: Agonist-induced increase in extracellular acidification rate (ECAR) in PC-12 cells, cytosensor microphysiometer; type: cell-based
T1 construct: PC12 cells endogenously express adenosine A2A receptors; host or cells: PC-12 cells
Description: PC-12 cells (purchased from ECACC) were maintained in RPMI 1640 media (Sigma) supplemented with 2 mM L-glutamine and 10% FCS in a controlled environment of 5% CO2, 95% humidity at 37° C.
On the day of the assay the cells were gently harvested and centrifuged at 700 RPM for 10 min. The supernatant was discarded and the pellet re-suspended to a final density of approx. 1×10^6 cells/ml in modified RPMI 1640 media. 600 μl of this suspension was mixed with 200 μl of molten agarose cell entrapment media (Molecular Devices) pre-incubated to 37° C. The cell suspension was returned to the incubator for a further 10 minutes for equilibration. 10 μl of this cell agarose suspension was spotted onto the middle of the capsule insert well and allowed to set before being placed in the sensor chambers in the cytosensor® microphysiometer. […]
Agonist concentration curves were constructed by exposing the cells to increasing concentrations of agonist for a total exposure time of approximately 1 min 53 sec. Agonist concentration curves in the presence of antagonists were performed following pre-incubation of the cells to the antagonists for at least 20 min prior to agonist exposure (in the presence of the fixed antagonist concentration) Baseline acidification rates were normalised to 100%, and all responses were calculated as a % increase over normalised baseline. […]

mice [4] = experiment: Potentiation of pentylenetetrazole-induced seizures (proconvulsant effect) in mice; conditions: 300 mg/kg p.o., 24 hrs after a single dose
[5] = target: T2, human recombinant (HEK-293) adenosine A3 receptors (Homo sapiens, UniProt P0DMS8); conditions: comparative literature data for reference ligands; cited from earlier work
T2 construct: expressed in transfected cells; host or cells: HEK-293
T2 sequence (P0DMS8 1-318): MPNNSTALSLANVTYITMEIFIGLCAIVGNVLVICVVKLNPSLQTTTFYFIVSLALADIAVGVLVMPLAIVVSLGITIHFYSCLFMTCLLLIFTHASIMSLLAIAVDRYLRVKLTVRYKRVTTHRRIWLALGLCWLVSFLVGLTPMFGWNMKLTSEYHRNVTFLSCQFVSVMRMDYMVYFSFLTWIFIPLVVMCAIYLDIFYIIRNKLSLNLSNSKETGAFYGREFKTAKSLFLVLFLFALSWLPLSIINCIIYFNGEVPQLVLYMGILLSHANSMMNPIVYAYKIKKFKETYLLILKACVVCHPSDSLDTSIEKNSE

T1 sequence (P30543 whole entry): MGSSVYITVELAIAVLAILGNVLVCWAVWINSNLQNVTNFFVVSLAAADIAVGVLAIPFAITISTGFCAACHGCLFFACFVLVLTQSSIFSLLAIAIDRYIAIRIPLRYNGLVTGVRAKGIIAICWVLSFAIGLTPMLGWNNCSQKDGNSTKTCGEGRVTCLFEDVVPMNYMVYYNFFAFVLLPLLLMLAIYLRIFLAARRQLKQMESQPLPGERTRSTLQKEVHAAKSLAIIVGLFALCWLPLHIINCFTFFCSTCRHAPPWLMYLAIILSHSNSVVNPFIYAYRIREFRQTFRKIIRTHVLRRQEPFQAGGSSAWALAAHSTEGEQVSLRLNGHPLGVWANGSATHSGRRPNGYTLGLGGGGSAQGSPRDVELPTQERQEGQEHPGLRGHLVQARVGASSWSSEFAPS

Compound | Ki [1] | reduced activity, unkempt appearance, hunched body posture (late effects) (mice [2]) | Ki [5] | also measured
O[C@H](c1cc(C(F)(F)F)nc2c(C(F)(F)F)cccc12)[C@@H]1CCCCN1 (racemic) [mefloquine, (R*,S*)-(±)-α-2-Piperidinyl-2,8-bis(trifluoromethyl)-4-quinolinemethanol] |  |  |  | adverse neuropsychiatric events compared with proguanil plus chloroquine (travellers): significant excess of adverse neuropsychiatric events
O[C@H](c1cc(C(F)(F)F)nc2c(C(F)(F)F)cccc12)[C@@H]1CCCCN1 [(+)-enantiomer, (+)-(11R,2′S)-α-2-piperidinyl-2,8-bis(trifluoromethyl)-4-quinolinemethanol] | 38 µM | these effects only became apparent after 5-6 days, and did not include seizures |  | factor by which the (+)-enantiomer was more potent than the (−)-enantiomer (Plasmodium falciparum): 1.69-1.81
O[C@@H](c1cc(C(F)(F)F)nc2c(C(F)(F)F)cccc12)[C@H]1CCCCN1 [(−)-enantiomer, (−)-(11S,2′R)-α-2-piperidinyl-2,8-bis(trifluoromethyl)-4-quinolinemethanol] | 0.083 µM | showed reduced activity, unkempt appearance and assumed a hunched body posture |  | effect on the CGS 21680-induced increase in ECAR ([3]; agonist CGS 21680, FIG. 6): specific to adenosine A2A receptors; effect on the NECA-induced increase in ECAR ([3]; agonist NECA, FIG. 5): binds to adenosine receptors as an antagonist; behavioral effects twenty-four hours after the first dose (mice [2]; 300 mg/kg p.o., 24 hours): difficult to handle and displayed aggression toward cage-mates; qualitative behavioral difference between the enantiomers (mice [2]; daily dosing 30, 100, 300 mg/kg p.o.): appearing more potent in eliciting spontaneous seizures, irritability and aggressiveness; latency to onset of clonic seizures induced by infusion of pentylenetetrazole (PTZ) (mice [4]): significantly reduced the latency to onset of clonic seizures
OC[C@H]1O[C@@H](n2cnc3c(NC4CCCCC4)ncnc32)[C@H](O)[C@@H]1O [CHA] |  |  | 7.7 µM | 
CNC(=O)[C@H]1O[C@@H](n2cnc3c(N)ncnc32)[C@H](O)[C@@H]1O [MECA, 5′-N-methylcarboxamidoadenosine, reference compound] | 0.058 µM |  |  | 
Nc1nc(NCCc2ccc(O)cc2)nc2nc(-c3ccco3)nn12 [ZM241385] |  |  | 151 µM | 
